In the series the test system is mice skin. The experiment in a line: In vivo photohypersensitivity of mice skin. On the set-up: species or system nude mice. As to conditions: 0.3 mg/kg i.v. As for the experimental part:
It is well known that some PDT agents result in photohypersensitivity of the skin, which causes significant inconvenience in the daily life of the patient. Typical signs of photohypersensitivity include redness and swelling of the skin, visible angiopathy along with the formation of skin debris and even eschar in server cases. To investigate whether the present photosensitizer particles may elicit photohypersensitivity in the patient, 0.3 mg/kg native CPLA photosensitizer particles (LN1 particles from Example 2.1, above) and 0.3 mg/kg gas-loaded CPLA photosensitizer particles (LA1 particles from Example 2.1, above) were respectively injected to the tail of nude mice via intravenous injection 3 hours prior to light irradiation (15, 40 or 100 J/cm^2). Foscan® (0.3 mg/kg) was used as the positive control, while 1×PBS (100 μL) was used as negative control.

As for `Oc1cccc(-c2c3nc(c(-c4cccc(O)c4)c4ccc([nH]4)c(-c4cccc(O)c4)c4nc(c(-c5cccc(O)c5)c5ccc2[nH]5)CC4)C=C3)c1` [Foscan®], the photohypersensitivity of skin result was “little to mild photohypersensitivity” (15 or 40 J/cm^2) and “significant photohypersensitivity” (100 J/cm^2).

(Values after US20160082127A1, “PHOTOSENSITIZER PARTICLES FOR MEDICAL IMAGING AND/OR PHOTODYNAMIC THERAPY” (DCB-USA LLC, priority 2013, published 2016).)
